Measurements taken from a melting point compilation (Tetko et al.; mined from patent text by program, amines drawn as free bases though some values may be those of a salt).
Non-standard residues stand in square brackets, D forms with d. Residues, ends and D or L forms follow the SMILES beside them. *: point of attachment. 1Nal = N[C@@H](Cc1cccc2ccccc12)C(=O)O; Cbz = O=C(OCc1ccccc1)*

Structure (SMILES)	melting point [°C]
COC(=O)C1=C(C)NN=C(c2cccc(Cl)c2)C1c1ccccc1 (stereo not drawn)	176
CCOC(=O)CCN1CCN2c3ccccc3Cc3ccccc3C2C1 (stereo not drawn)	159 to 160
CCOC(=O)NN=C(C)C1(N)C(O)CC2C3CC=C4CC(OC(C)=O)CCC4(C)C3CCC21C (stereo not drawn)	287 to 289
CC12CCC3C(CC=C4CC(F)CCC43C)C1CCC2=O (stereo not drawn)	155 to 156
CC(=O)c1cc(-c2ccncc2)sc1N1CCN(C)CC1	115 to 117
Cc1ccc(S(=O)(=O)OC[C@H]2COc3ccc([N+](=O)[O-])cc3O2)cc1	138
COc1cccc(CCl)c1SCc1ccccc1	54
CC(C)Oc1cc(CCCOc2ncccc2CC(=O)O)n(Cc2ccc(Cl)cc2Cl)n1	88 to 90
CCOC(=O)Nc1cc(Cl)nc(NC(=O)OCC)n1	153 to 154
CCCc1nn(CC)c2c(=O)n(CCCOc3ccc(SC(C)(C)C(=O)O)cc3)c(C)nc12	118 to 120
COc1ccc(CN2C(=O)C3CCCC3=Nc3ccccc32)cc1 (stereo not drawn)	128 to 131
CC(C)(C)c1cc(-c2n[nH]c(=S)o2)cc(C(C)(C)C)c1O	254
CC(=O)NCC1CN(c2ccc(-c3cccc(CN(CC(N)=O)CC(N)=O)c3)c(F)c2)C(=O)O1 (stereo not drawn)	213
N#Cc1ccc(-c2ccc(OCCCCCC(=O)NO)cc2)cc1	129
CCOc1cccnc1CSCCN=C(NC)NC#N	126 to 128
CS(=O)(=O)N1CCCC(Nc2nccc(-n3nnc4ccccc43)n2)C1 (stereo not drawn)	196 to 197
CC(=O)C1CCC2C3CCC4CC(O)C(N5CCSC(C)(C)C5)CC4(C)C3CCC12C (stereo not drawn)	184 to 185
CCCOc1ccccc1-c1nc2cc3ncn(Cc4ccc(Cl)cc4)c3cc2c(=O)[nH]1	136 to 137
Cn1nnnc1-c1nccn1Cc1ccccc1	110 to 111
Oc1ccc(Cl)c2c1CCCC2	58 to 59
Nc1cc(Cl)cc(Cl)c1C(=O)NCC1CCCCC1	168 to 171
CCCc1c(OCCOc2cccc3c2CCCC3)ccc2c1OC(CCC(=O)O)(CCC(=O)O)CC2=O	160 to 162
Cn1c(=O)c2c(nc(Cl)n2Cc2ccccc2Br)n(C)c1=O	165 to 167
CCCCCCCCCCCCCCC(CCCCCC(=O)O)CCCCCC(=O)O	48 to 50
CCCCN1CCn2c1nc(C(=O)NCc1ccc(F)cc1C(=O)NC)c(O)c2=O	175 to 177

Structure (SMILES)	melting point [°C]
CCCN(Cc1ccco1)S(=O)(=O)c1ccc(OC)c2oc(C(C)=O)cc12	109 to 111
COC(=O)c1ccc(N2CCNCC2)nc1	91 to 92
CCCCCCCOc1ccc(C(=O)O)c(F)c1F	105
Cc1cccc(COc2cccc(OCc3ccc4cc(F)ccc4n3)c2)c1C(=O)O	153 to 154
COc1ccc(C2(C#Cc3ccc(NC(C)=O)cc3)CCC(=O)CC2)cc1OC1CCCC1	79 to 80
CN(c1ncccc1C=O)C1CCN(C(=O)OC(C)(C)C)CC1	90 to 91
COC(=O)COc1cccc2c1CCC(Br)C2=O (stereo not drawn)	76 to 77
COc1ccc2c(=O)c(N)coc2c1	143 to 146
O=C(O)[C@H](Cc1ccccc1)NS(=O)(=O)c1ccc(N2CCN(c3ccccc3)CC2)cc1	192 to 193
COc1ccccc1N1CCN(CCCNc2ccc(F)cc2)CC1	79 to 80
CC(C)=CCN1Cc2cc(Cl)c(Cl)c3[nH]c(=S)n(c23)C[C@@H]1C	173
CC(C)(C)c1cccc(C[C@@H]2N[C@@H](c3ccccc3)[C@@H](c3ccccc3)OC2=O)c1	136 to 137
O=c1c2ccccc2ccn2ccnc12	219
Cc1nnc2n1-c1ccccc1CS2	142 to 144
O=C(NCCCc1ccncc1)N(CCC(F)(F)F)CCC12CC3CC(CC(C3)C1)C2	108 to 109
COC(=O)CCCc1cc2nc(C(F)(F)F)ccc2n1S(=O)(=O)c1ccc(Cl)cc1	97
Cc1ccc2[nH]c(=O)n(C3CCNCC3)c2c1	> 300
Cc1cc(C(=O)CCc2sc(-c3ccc(C(F)(F)F)cc3)cc2C(C)C)ccc1OCC(=O)O	139 to 143
COC(=O)CCCC(=O)c1cc2c(c(S(N)(=O)=O)c1)OCC2	135 to 136
COC(=O)Cc1ccc(NC(=O)c2sc3ccc(OC)cc3c2OC(C)C)cc1	111 to 113
Cc1nn2c(-c3cc(Cl)ccc3Cl)ccnc2c1C#N	234 to 236
Cc1ccc(-n2nc(O)c3[nH]c4cc(Cl)ccc4c(=O)c3c2=O)cc1	368 to 370
CC(=O)Cc1ccc(OCC2CO2)cc1 (stereo not drawn)	43
O=C(O)c1cccc(-c2cccn3cc(Cc4cccc(C(F)(F)F)c4)nc23)c1	179 to 180
CC1(C)C(=O)N(c2ccc([N+](=O)[O-])c(C(F)(F)F)c2)C(=O)N1CC=CCN1C(=O)N(c2ccc([N+](=O)[O-])c(C(F)(F)F)c2)C(=O)C1(C)C	191 to 193

Structure (SMILES)	melting point [°C]
Clc1nc[nH]c2ncc(I)c1-2	195 to 196
CCCCc1nn(-c2cc(NC(=O)CC)ccc2Cl)c(=O)n1Cc1ccc(-c2ccccc2S(=O)(=O)NC(=O)OC(C)(C)C)cc1	133 to 135
O=C(Cc1c(-c2ccccc2)c2cc(CSc3ccccn3)c(Cl)cc2oc1=O)Nc1ccc(F)cc1C(F)(F)F	195 to 196
O=C(O)c1ccc(OCCNC(=O)C2Cc3ccccc3N2S(=O)(=O)c2ccc(-c3ccc(F)cc3F)cc2)cc1F (stereo not drawn)	91 to 94
CC1(C)CCC(C)(C)c2cc(-c3cc(-c4ccc(C(=O)O)cc4)ccc3-c3ccccc3)ccc21	287 to 288
COc1ccc(S(=O)(=O)NCCc2ccc(OCC(=O)O)cc2)cc1	82 to 83
Cc1nc2n(C)ccn2c(=O)c1CCN1CCC(Nc2nc3ccccc3[nH]2)CC1	230
O=C(CC(O)(c1cc(Cl)cc(Cl)c1)C(F)(F)F)c1ccc(F)c(Br)c1 (stereo not drawn)	134 to 135
O=C1c2ccccc2-c2[nH]c(=O)cnc21	> 300
COC12CC(C)(c3nc(-c4cncc(Br)c4)no3)CN(C)C1Cc1c(Br)n(C)c3cccc2c13 (stereo not drawn)	167 to 172
CCCCCCCCCOc1ccccc1/C=C/C(C)=C/C=C/C(C)=C\C(=O)O	135 to 136
COc1ccc(C)c([N+](=O)[O-])c1C	53 to 55
CCC(C)Nc1nc(Cc2cc(OC)c(OC)c(OC)c2)nc2sc(C#N)c(C)c12 (stereo not drawn)	134 to 137
CCCN(CCC)S(=O)(=O)c1cc(-c2csc(=Nc3ccc(C)cc3C)n2C)ccc1Cl	139 to 141
Cn1ncc2c1CCCc1cn[nH]c1-2	153 to 155
COc1cn(-c2ccc(OCc3ccccc3)cc2F)nc(C(C)=O)c1=O	101 to 103
O=C(Nc1ccc(F)c([N+](=O)[O-])c1)C(F)(F)F	70 to 75
CC(=O)Oc1cccc(-c2csc3nc(C45CC6CC(CC(C6)C4)C5)cn23)c1	199 to 201
O=C1CCN(Cc2cccnc2)C(=O)C1	55 to 60
Cc1cn(C2(C(=O)N(C)C)CCC2)nc1-c1ccccc1	87 to 89
N#CCC(=O)Nc1ccc(-c2ccc(C(=O)O)c(=O)[nH]2)cc1	> 280
CCOC(=O)C1=C(c2ccc(-n3c(C)nc4cnccc43)cc2)NC(OC)=NC1c1ccccc1Cl (stereo not drawn)	228 to 232
COC(=O)NC(CCc1ccc(Cl)cc1)C(=O)O (stereo not drawn)	113 to 114
CCn1ncc2nc(C(=O)OCC#N)c(-c3ccccc3)nc21	102 to 103
CC(C)(C)C(=O)OC1CCC2(C)C(=CC(O)C3C2CCC2(C)C(=O)CC(OC(=O)C(C)(C)C)C32)C1 (stereo not drawn)	195 to 197

Structure (SMILES)	melting point [°C]
O=C(Nc1ccc(-c2ncon2)cc1)Oc1ccccc1	157 to 158
CC(C)C[C@@H](C=O)NC(=O)[C@H](Cc1c[nH]cn1)NC(=O)[C@H](Cc1cccc2ccccc12)NC(=O)OCc1ccccc1 (Cbz-[1Nal]-His-Leu-aldehyde)	106 to 108
O=C(O)CC(CCCc1ccc(O)cc1)CC(=O)O	107 to 108
CCOC(=O)c1c(C(F)F)nc(C(F)(F)F)c(C(=O)OCC)c1NC(C)(C)C	30 to 31
COc1ccc(-c2cc(C#N)c[nH]2)c(OC)c1	129 to 130
CN(C)C=C(C=O)c1ccc(Cl)cc1Cl	112 to 114
O=C(NC(=O)c1c(F)cccc1F)Nc1cc(Br)c(F)c(Cl)c1F	225 to 227
CC(=O)Nc1ccc(CC(=O)O)cc1Br	157 to 159
CCCCCCSC(=O)CS(=O)(=O)Nc1c(C(C)C)cccc1C(C)C	81 to 83
Nc1nc2ccccc2c2c1ncn2CCOCC#Cc1ccc(Oc2ccccc2)cc1	146 to 148
Oc1ccc(C2(O)CCC3CN(Cc4ccccc4)CCC3C2)cc1 (stereo not drawn)	108 to 109
CS(=O)(=O)c1ccc(-c2cc(CO)nn2Cc2ccccc2)cc1	155
COc1cc(Cl)c(OC)cc1C	90 to 92
CCCc1nc(N)nc(N2CCOCC2)n1	127 to 128
COc1ccc2c(c1)Sc1cc(OC)ccc1N2	194 to 196
Cc1cc(Oc2ccc([N+](=O)[O-])c(C(F)(F)F)c2)n[nH]1	96 to 98
C=CC(=O)N1C(C)(C)CC(OC(=O)CCCC(C)(C)c2cc(OC)c(C(C)(C)CCCC(=O)OC3CC(C)(C)N(C(=O)C=C)C(C)(C)C3)cc2O)CC1(C)C	50 to 52
CC(C)CC1NCCNC1=O (stereo not drawn)	75 to 77
OC(c1ccccc1)C(CN1CC=C(c2ccc(Cl)cc2)CC1)c1ccccc1 (stereo not drawn)	135 to 137
C[C@@H](NC(=O)c1cccc(-c2ccc(Cl)cc2)c1)[C@](O)(Cn1cncn1)c1ccc(F)cc1F	90 to 91
CCc1nc2c(N)nc3ccc(-c4ccccc4)cc3c2n1CC(C)C	233 to 235
O=C(c1ccnc(Cl)c1)N1CC2(CCN(CC=Cc3ccc(C(F)(F)F)cc3)CC2)c2cc(Cl)ccc21	130
CCCc1nc2c(N)nc3cc(OCc4ccccc4)ccc3c2s1	175 to 178
